Legend:
Rat PK test = type: in vivo; details: male SD rats, iv, 1 mg/kg (calculated in free form)
Mouse PK test = type: in vivo; details: plasma, male ICR mice, iv, 1 mg/kg (calculated in free form)
human κ-opioid receptor = molecular target: T1, human κ-opioid receptor (Homo sapiens, UniProt P41145); assay: Agonist activity on human κ-opioid receptors (inhibition of forskolin-stimulated cAMP release, TR-FRET); type: cell-based; details: OPRK1 cells (DiscoveRx)
T1 construct: host or cells: OPRK1 cells (DiscoveRx)
T1 sequence (P41145 whole entry): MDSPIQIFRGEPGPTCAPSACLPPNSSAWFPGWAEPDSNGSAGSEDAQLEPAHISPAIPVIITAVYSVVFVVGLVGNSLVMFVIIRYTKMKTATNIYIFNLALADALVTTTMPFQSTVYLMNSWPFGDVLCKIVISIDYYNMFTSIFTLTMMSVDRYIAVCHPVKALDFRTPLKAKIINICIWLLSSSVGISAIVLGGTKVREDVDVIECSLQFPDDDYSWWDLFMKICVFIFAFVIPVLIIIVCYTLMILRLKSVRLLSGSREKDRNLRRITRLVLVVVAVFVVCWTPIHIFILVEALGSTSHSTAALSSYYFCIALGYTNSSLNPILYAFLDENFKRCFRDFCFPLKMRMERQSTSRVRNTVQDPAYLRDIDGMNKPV
Source text: Test 1: Agonist Activity on Human κ-Opioid Receptors
Forskolin can stimulate the release of cAMP from a human κ-opioid receptor-overexpressing cell line, OPRK1 cells (DiscoveRx), and κ-opioid receptor agonists can inhibit the cAMP release stimulated by forskolin. By detecting the inhibitory effect of the test compound on the cAMP release stimulated by forskolin, the agonistic activity of the compound on the human κ-opioid receptor can be determined. First, a certain concentration of forskolin and different concentrations of the test compound were incubated with human κ-opioid receptor overexpressing cell lines. A cAMP immunoassay (LANCE®, PerkinElmer) based on time-resolved fluorescence resonance energy transfer (TR-FRET) was used to determine cAMP levels in the stimulated OPRK1 cells. The specific method is as follows:
OPRK1 cells (DiscoveRx) that highly express human κ-opioid receptors were cultured in McCoy's 5A (Gibco 16600-082) medium containing 10% FBS (Gibco 10099-141). On the day of the experiment, the cells in the exponential growth phase were washed and separated with PBS/5 mM EDTA, collected by centrifugation, resuspended with Stimulation Buffer and counted. The concentration of cells was adjusted to 3*10^5 cells/ml. DMSO was used to dissolve Forskolin and the test compound respectively, so that the mother liquor concentration each was 10 mM, and then diluted Forskolin to […] with Stimulation Buffer, and different concentrations of the test compound (the concentrations were 80, 16, 3.2, 0.64, 0.128, 0.0256, 0.00512, 0.001024, 0 μM) was added, 5 μl per well was added to a 384-well plate. 5 μl of cell suspension was added to each well and incubated at room temperature for 30 min. Subsequently, 5 μl of 4×Eu-cAMP tracer working solution (50-fold dilution of Eu-cAMP stock solution with cAMP Detection Buffer) and 5 μl of 4×Ulight-anti-cAMP working solution (150-fold dilution of ULight-anti-cAMP stock solution with cAMP Detection Buffer) were added to each well, and incubated at room temperature for 1 hour. 384-well plates were assayed for cAMP levels using a microplate reader (Perkin Elmer, Envision) TR-FRET method. The obtained data were processed and fitted to EC50 using the origin 7.5 software. The human κ-opioid receptor agonistic activity of the compound of the present invention was measured through the above experiments, and the measured EC50 values are shown in Table 1.
Stimulation Buffer preparation method: 14 mL 1*HBSS (invitrogen, cat. #14025-092), 75 μL 1 M HEPES (Invitrogen, cat. #15630-080), 30 μL 250 mM IBMX was dissolved in DMSO (Sigma, cat. #17018) and mixed with 200 μL 7.5% BSA Stabilizer. pH of the solution was adjusted to 7.4 with 0.1 N NaOH and make up to 15 mL with 1*HBSS.

SMILES	EC50 (human κ-opioid receptor) [nM]	other results
CC(C)C[C@@H](NC(=O)[C@@H](Cc1ccccc1)NC(=O)[C@H](N)Cc1ccccc1)C(=O)N[C@H](CCCCN)C(=O)N1CCC(N)(C(=O)O)CC1 [CR-845]		Cl (Rat PK test): 8.29 ml/kgmin; AUC(0-t) (Rat PK test; rat, plasma): 1960 ng·h/mL; half-life (Rat PK test; rat, plasma): 3.9 h; Vd (Rat PK test; rat, plasma, read-out: Vdss): 1.56 L/kg; AUC(0-t) (Mouse PK test): 1120 ng·h/mL; half-life (Mouse PK test): 0.388 h
CC(C)C[C@@H](NC(=O)[C@@H](Cc1ccccc1)NC(=O)[C@H](N)Cc1ccccc1)C(=O)N[C@H](CCCCN)C(=O)N1CC2(CCN(S(C)(=O)=O)CC2)C1 [Compound 12, (2R)—N-[(1R)-5-amino-1-(7-methylsulfonyl-2,7-diazaspiro[3.5]nonane-2-carbonyl)pentyl]-2-[[(2R)-2-[[(2R)-2-amino-3-phenyl-propanoyl]amino]-3-phenyl-propanoyl]amino]-4-methyl-pentanamide; di-trifluoroacetic acid]	0.067	
CC(C)C[C@@H](NC(=O)[C@@H](Cc1ccccc1)NC(=O)[C@H](N)Cc1ccccc1)C(=O)N[C@H](CCCCN)C(=O)N1CCC2(CC1)CN(C(=O)N1CCCC1)C2 [Compound 13, (2R)-2-[[(2R)-2-[[(2R)-2-amino-3-phenyl-propanoyl]amino]-3-phenyl-propanoyl]amino]-N-[(1R)-5-amino-1-[2-(pyrrolidin-1-carbonyl)-2,7-diazaspiro[3.5]nonane-7-carbonyl]pentyl]-4-methyl-pentanamide; di-trifluoroacetic acid]	0.00682	
CC(C)C[C@@H](NC(=O)[C@@H](Cc1ccccc1)NC(=O)[C@H](N)Cc1ccccc1)C(=O)N[C@H](CCCCN)C(=O)N1CCC2(CC1)CN(C(=O)N1CC(S(C)(=O)=O)C1)C2 [Compound 14, (2R)—N-[(1R)-5-amino-1-[2-(3-methylsulfonylazetidine-1-carbonyl)-2,7-diazaspiro[3.5]nonane-7-carbonyl]pentyl]-2-[[(2R)-2-[[(2R)-2-amino-3-phenyl-propanoyl]amino]-3-phenyl-propanoyl]amino]-4-methyl-pentanamide; di-trifluoroacetic acid]	0.0155	
CC(C)C[C@@H](NC(=O)[C@@H](Cc1ccccc1)NC(=O)[C@H](N)Cc1ccccc1)C(=O)N[C@H](CCCCN)C(=O)N1CCC2(CC1)CN(C(=O)[C@@H](C)N)C2 [Compound 17, (2R)—N-[(1R)-5-amino-1-[2-[(2R)-2-aminopropanoyl]-2,7-diazaspiro[3.5]nonane-7-carbonyl]pentyl]-2-[[(2R)-2-[[(2R)-2-amino-3-phenyl-propanoyl]amino]-3-phenyl-propanoyl]amino]-4-methyl-pentanamide; tri-trifluoroacetic acid]	0.00919	AUC(0-t) (Mouse PK test): 2240 ng·h/mL; half-life (Mouse PK test): 3.88 h
CC(C)C[C@@H](NC(=O)[C@@H](Cc1ccccc1)NC(=O)[C@H](N)Cc1ccccc1)C(=O)N[C@H](CCCCN)C(=O)N1CC2(CCN(C(=O)[C@@H](C)N)CC2)C1 [Compound 18, (2R)—N-[(1R)-5-amino-1-[7-[(2R)-2-aminopropanoyl]-2,7-diazaspiro[3.5]nonane-2-carbonyl]pentyl]-2-[[(2R)-2-[[(2R)-2-amino-3-phenyl-propanoyl]amino]-3-phenyl-propanoyl]amino]-4-methyl-pentanamide; tri-trifluoroacetic acid]	0.04	
CC(C)C[C@@H](NC(=O)[C@@H](Cc1ccccc1)NC(=O)[C@H](N)Cc1ccccc1)C(=O)N[C@H](CCCCN)C(=O)N1CC2(CCN(C(=O)[C@@H](C)N)CC2(F)F)C1 [Compound 19, (2R)—N-[(1R)-5-amino-1-[7-[(2R)-2-aminopropanoyl]-5,5-difluoro-2,7-diazaspiro[3.5]nonane-2-carbonyl]pentyl]-2-[[(2R)-2-[[(2R)-2-amino-3-phenyl-propanoyl]amino]-3-phenyl-propanoyl]amino]-4-methyl-pentanamide; tri-trifluoroacetic acid]	0.044	
CC(=O)N1CCC2(CC1)CN(C(=O)[C@@H](CCCCN)NC(=O)[C@@H](CC(C)C)NC(=O)[C@@H](Cc1ccccc1)NC(=O)[C@H](N)Cc1ccccc1)C2 [Compound 20, (2R)—N-[(1R)-1-(7-acetyl-2,7-diazaspiro[3.5]nonane-2-carbonyl)-5-amino-pentyl]-2-[[(2R)-2-[[(2R)-2-amino-3-phenyl-propanoyl]amino]-3-phenyl-propanoyl]amino]-4-methyl-pentanamide; di-trifluoroacetic acid]	0.086	
CNC(=O)N1CCC2(CCN(C(=O)[C@@H](CCCCN)NC(=O)[C@@H](CC(C)C)NC(=O)[C@@H](Cc3ccccc3)NC(=O)[C@H](N)Cc3ccccc3)C2)C1 (stereo partly drawn) [Compound 22, 7-[(2R)-6-amino-2-[[(2R)-2-[[(2R)-2-[[(2R)-2-amino-3-phenyl-propanoyl]amino]-3-phenyl-propanoyl]amino]-4-methyl-pentanoyl]amino]hexanoyl]-N-methyl-2,7-diazaspiro[4.4]nonane-2-carboxamide; di-trifluoroacetic acid]	0.0112	
CC(C)C[C@@H](NC(=O)[C@@H](Cc1ccccc1)NC(=O)[C@H](N)Cc1ccccc1)C(=O)N[C@H](CCCCN)C(=O)N1CCC2(CC1)CC(N1CCCCC1)C2 [Compound 23, (2R)-2-[[(2R)-2-[[(2R)-2-amino-3-phenyl-propanoyl]amino]-3-phenyl-propanoyl]amino]-N-[(1R)-5-amino-1-[2-(1-piperidinyl)-7-azaspiro[3.5]nonane-7-carbonyl]pentyl]-4-methyl-pentanamide; tri-trifluoroacetic acid]	0.023	
CC(=O)N1CCC2(C1)CN(C(=O)[C@@H](CCCCN)NC(=O)[C@@H](CC(C)C)NC(=O)[C@@H](Cc1ccccc1)NC(=O)[C@H](N)Cc1ccccc1)C2 [Compound 30, (2R)—N-[(1R)-1-(7-acetyl-2,7-diazaspiro[3.4]octane-2-carbonyl)-5-amino-pentyl]-2-[[(2R)-2-[[(2R)-2-amino-3-phenyl-propanoyl]amino]-3-phenyl-propanoyl]amino]-4-methyl-pentanamide; di-trifluoroacetic acid]	0.071	
CC(=O)N1CCC2(CCN(C(=O)[C@@H](CCCCN)NC(=O)[C@@H](CC(C)C)NC(=O)[C@@H](Cc3ccccc3)NC(=O)[C@H](N)Cc3ccccc3)C2)C1 (stereo partly drawn) [Compound 31, (2R)—N-[(1R)-1-(7-acetyl-2,7-diazaspiro[4.4]nonane-2-carbonyl)-5-amino-pentyl]-2-[[(2R)-2-[[(2R)-2-amino-3-phenyl-propanoyl]amino]-3-phenyl-propanoyl]amino]-4-methyl-pentanamide; di-trifluoroacetic acid]	0.0136	
CC(C)C[C@@H](NC(=O)[C@@H](Cc1ccccc1)NC(=O)[C@H](N)Cc1ccccc1)C(=O)N[C@H](CCCCN)C(=O)N1CC2(CCN(C3COC3)CC2)C1 [Compound 33, (2R)—N-[(1R)-5-amino-1-[7-(oxetan-3-yl)-2,7-diazaspiro[3.5]nonane-2-carbonyl]pentyl]-2-[[(2R)-2-[[(2R)-2-amino-3-phenyl-propanoyl]amino]-3-phenyl-propanoyl]amino]-4-methyl-pentanamide; tri-trifluoroacetic acid]	0.05	
